From patent US6608185B1, “Substances KF-1040T4A,KF-1040T4B, KF-1040T5A, and KF-1040T5B, and process for producing same” (Kitasato Institute, priority 2002, dated 2003)
Converted amounts (≈) assume the structure as drawn.

Tests used:
[1] = Solubility in solvents; format: physicochemical
[2] = target: T1, acid sphingomyelinase (Homo sapiens, UniProt P17405); assay: Influence on human placenta-originated acid sphingomyelinase; format: biochemical; settings: human placenta enzyme (Sigma), pH 5.0, 37° C., 30 minutes; read-out: concentration corresponding to 50% inhibition of acid sphingomyelinase (converted)
T1 construct: an acid sphingomyelinase originating from human placenta (a product of Sigma Co.) was used as the enzyme source; purchased Sigma Co; host or cells: human placenta (tissue-derived enzyme)
T1 sequence (P17405 47-631): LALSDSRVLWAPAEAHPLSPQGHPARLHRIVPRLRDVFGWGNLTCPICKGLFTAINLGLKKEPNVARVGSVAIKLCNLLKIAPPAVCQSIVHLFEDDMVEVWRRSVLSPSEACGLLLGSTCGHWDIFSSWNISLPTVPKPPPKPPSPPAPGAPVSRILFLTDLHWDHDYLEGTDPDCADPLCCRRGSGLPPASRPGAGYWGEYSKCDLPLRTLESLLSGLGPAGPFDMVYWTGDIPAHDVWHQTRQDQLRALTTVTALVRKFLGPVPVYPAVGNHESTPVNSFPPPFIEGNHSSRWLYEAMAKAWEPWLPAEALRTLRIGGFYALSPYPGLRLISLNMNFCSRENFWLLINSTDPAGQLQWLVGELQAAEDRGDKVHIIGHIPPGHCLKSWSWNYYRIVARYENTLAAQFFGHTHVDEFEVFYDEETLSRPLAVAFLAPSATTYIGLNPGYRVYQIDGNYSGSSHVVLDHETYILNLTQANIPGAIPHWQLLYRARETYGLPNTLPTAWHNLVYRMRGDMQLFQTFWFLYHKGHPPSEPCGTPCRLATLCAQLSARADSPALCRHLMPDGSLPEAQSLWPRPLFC
Description: (4) Influence on Human Placenta-originated Acid Sphingomyelinase
The assessment of the influence of the substances on human placenta-originated acidic sphingomyelinase was performed in accordance with the method of Jones et al. [Biochem. Journal, 195, 373-382 (1981)] with partial modification.
Thus, an acid sphingomyelinase originating from human placenta (a product of Sigma Co.) was used as the enzyme source and thereto were added 250 mM of sodium acetate buffer solution (pH 5.0), 0.1% of NP-40 (a product of Sigma Co.), and 25 μM [N-methyl-^3H] sphingomyelin (0.006 μCi), and the mixture was filled up to a total volume of 50 μl. After reaction at 37° C. for 30 minutes, 200 μl of chloroform/methanol mixture (1/2 in volume ratio) was added thereto to separate the reaction product [^3H] phosphocholine from the starting material [^3H] sphingomyelin. The upper layer was taken up into a […]. The amount of [^3H] phosphocholine was quantitatively determined by a liquid scintillation counter to estimate the acid sphingomyelinase activity.

[3] = target: diacylglycerol acyltransferase; assay: Inhibitory action against rat-originated diacylglycerol acyltransferase (rat liver microsomal fraction); format: biochemical; settings: [1-14C]palmitoyl-CoA, 23° C., 15 minutes
Description: (1) Inhibitory Action against Rat-originated Diacylglycerol Acyltransferase
The activity of diacylglycerol acyltransferase was determined in accordance with the method of Mayorek and BarTana, [J. Biol. Chem., 260, 6528-6532 (1985)] with partial modification.
Namely, a microsomal fraction prepared from rat liver was used as the enzyme source. To a 175 mM Tris-HCl buffer (pH 8.0) containing 8 mM of MgCl2, 1 mg/ml of bovine serum albumin and 2.5 mM of diisopropyl fluorophosphate, there were added 0.75 mM of dioleoylglycerol and 30 μM of [1^−14C] palmitoyl-CoA (0.02 μCi) and the total volume was adjusted to 200 μl, whereupon the enzymatic reaction mixture was incubated at 23° C. for 15 minutes. The total lipids were extracted with chloroform/methanol (1/2) mixture and each lipid was separated by a TLC (with Kiselgel GF254 and a developing solvent of petroleum ether/diethyl ether/acetic acid of 80/20/1), followed by measurement of the radioactivity of the triacylglycerol fraction using RI RADIO-SCANNER (manufactured by AMBIS System Inc., U.S.A.) to determine the diacylglycerol acyltransferase activity.

[4] = test system: Raji cell originating from human Burkitt lymphoma (triacylglycerol synthesis); assay: Inhibitory action against synthesis of triacylglycerol in human-originated Raji cells; format: cell-based; settings: [1-14C]oleic acid, 37° C., 30 minutes; for IC50: Homo sapiens, 0.5 h, read-out: drug concentration corresponding to 50% inhibition of triacylglycerol synthesis
Description: (2) Inhibitory Action against Synthesis of Triacylglycerol in Human-originated Cells (Raji Cell originating from Human Burkitt Lymphoma)
The assessment of the influence of the substances on triacylglycerol synthesis was performed in accordance with the method of Tomoda et al. [J. Biol. Chem., 266, 4214-4219 (1991)] using human-originated cells (Raji cell originated from human Burkitt lymphoma). A Raji cell dispersion of 2.7×10^6 cells per milliliter containing […] [1^−14C] oleic acid (0.02 μCi) was filled up to a total volume 200 μl, whereupon the reaction proceeded at 37° C. for 30 minutes. The total lipids were extracted with a chloroform/methanol (2/1) mixture. Then, the activity was measured in the same manner as in the “inhibitory action against rat-originated diacylglycerol-acyltransferase”.
The calculation of the drug concentration corresponding to 50% inhibition of triacylglycerol synthesis gives a value of 10 μg/ml for all the substances KF-1040T4A, KF-1040T4B, KF-1040T5A and KF-1040T5B.

SMILES | Solubility in solvents: methanol, benzene, chloroform and ethyl acetate [1] | Solubility in solvents: water and hexane [1] | IC50 [2] [µM] | drug concentration corresponding to 50% inhibition of diacylglycerol acyltransferase [3] [µg/mL] | drug concentration corresponding to 50% inhibition of triacylglycerol synthesis [4] [µg/mL] | IC50 [4] [µg/mL]
CCC(C)CC(C)CC(C)C(OC1OC(CO)C(O)C(O)C1O)C(C)/C=C(\C)C(O)C(C)/C=C(\C)C(O)C(C)/C=C(\C)C(=O)OCC(O)C(O)C(O)CO (single isomer, unassigned) [KF-1040T4B] | soluble | slightly soluble | 90.1 | 11.6 | 10 | –
CCC(C)CC(C)CC(C)C(OC1OC(COC(C)=O)C(O)C(O)C1O)C(C)/C=C(\C)C(O)C(C)/C=C(\C)C(O)C(C)/C=C(\C)C(=O)OCC(O)C(O)C(O)CO (single isomer, unassigned) [KF-1040T5B] | soluble | slightly soluble | 59.8 | 14.7 | 10 | –
CCC(C)CC(C)CC(C)C(OC1OC(CO)C(O)C(O)C1O)C(C)/C=C(\C)C(O)C(C)/C=C(\C)C(O)C(C)/C=C(\C)C(=O)OCC(O)C(O)C(O)CO (single isomer, unassigned) [KF-1040T4A] | soluble | slightly soluble | 300 | 13.2 | – | 10 (≈ 12.9 µM)
CCC(C)CC(C)CC(C)C(OC1OC(COC(C)=O)C(O)C(O)C1O)C(C)/C=C(\C)C(O)C(C)/C=C(\C)C(O)C(C)/C=C(\C)C(=O)OCC(O)C(O)C(O)CO (single isomer, unassigned) [KF-1040T5A] | soluble | slightly soluble | 239 | 18.0 | – | 10 (≈ 12.2 µM)
